This note sets out measurements from patent US11066369B2, “N-(pyridin-2-yl)pyridine-sulfonamide derivatives and their use in the treatment of disease” (Novartis AG, priority 2016, dated 2021).

Experiment [1] addresses T1, delF508-CFTR (Homo sapiens, UniProt P13569, DEL508-508).
T1 construct: functional activity of the CFTR channel (Chloride ion transport) in patient derived primary human bronchial epithelial cells; host or cells: patient-derived primary human bronchial epithelial cells (delF508-CFTR)
As to the kind of experiment: Measurement of delF508-CFTR functional activity in primary human bronchial epithelial cells (HBECs) using Multi-Transepithelial Clamp Circuit (MTECC-24) assay. The experiment is classed as cell-based. The note with it: primary CF HBECs; for MTECC24 CFHBEC- Amax %: test compound added 24h before assay plus potentiator, relative to reference combination (2 μM corrector + 0.5 μM potentiator); for EC50: test compound added 24h before assay, in the presence of potentiator, mean of at least two replicates, read-out: MTECC24 CFHBEC- EC50. Summed up: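 Compound tested as 10-point, 1-in-3 concentration response (0.1% or 0.2% DMSO), 24 h basolateral pre-incubation, then re-added to both sides. MTECC-24 measured Ieq in ALI-differentiated primary delF508 bronchial cells after amiloride, forskolin activation, potentiator and INH-172 block; data normalized to DMSO baseline, EC50 fitted.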

The target of experiment [2] is T2, horseradish peroxidase (HRP) tagged delF508-CFTR (Homo sapiens, UniProt P13569, DEL508-508).
T2 construct: expressed in transfected cells
In words: Measurement of delF508-CFTR-HRP surface expression in CFBE41o- cells.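 As to DelF508-CFTR-HRP Amax %: percent efficacy relative to reference corrector lumacaftor.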 In kind it is cell-based. The note with it: delF508-CFTR-HRP surface expression, CFBE41o- cells; for Emax: read-out: DelF508-CFTR-HRP Amax %; for EC50: read-out: DelF508-CFTR-HRP EC50. A digest of the protocol: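 Surface-trafficked delF508-CFTR detected via extracellular HRP tag, read as luminescence from a membrane-impermeant substrate in CFBE41o- cells. Cells pre-induced 48h with 500 ng/mL doxycycline, then exposed 24h at 37° C to a 10-point, 3-fold dilution series from 10 μM (DMSO ≤0.5%). Triplicate dose-responses fitted logistically for EC50 after per-plate normalization; fold change versus reference compound.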

Where a name gives a salt, the structure may show the parent alone.

By EC50 is commonly meant the concentration giving half of the maximal effect.

T2 sequence (P13569 with tags, fused parts or gaps DEL508-508): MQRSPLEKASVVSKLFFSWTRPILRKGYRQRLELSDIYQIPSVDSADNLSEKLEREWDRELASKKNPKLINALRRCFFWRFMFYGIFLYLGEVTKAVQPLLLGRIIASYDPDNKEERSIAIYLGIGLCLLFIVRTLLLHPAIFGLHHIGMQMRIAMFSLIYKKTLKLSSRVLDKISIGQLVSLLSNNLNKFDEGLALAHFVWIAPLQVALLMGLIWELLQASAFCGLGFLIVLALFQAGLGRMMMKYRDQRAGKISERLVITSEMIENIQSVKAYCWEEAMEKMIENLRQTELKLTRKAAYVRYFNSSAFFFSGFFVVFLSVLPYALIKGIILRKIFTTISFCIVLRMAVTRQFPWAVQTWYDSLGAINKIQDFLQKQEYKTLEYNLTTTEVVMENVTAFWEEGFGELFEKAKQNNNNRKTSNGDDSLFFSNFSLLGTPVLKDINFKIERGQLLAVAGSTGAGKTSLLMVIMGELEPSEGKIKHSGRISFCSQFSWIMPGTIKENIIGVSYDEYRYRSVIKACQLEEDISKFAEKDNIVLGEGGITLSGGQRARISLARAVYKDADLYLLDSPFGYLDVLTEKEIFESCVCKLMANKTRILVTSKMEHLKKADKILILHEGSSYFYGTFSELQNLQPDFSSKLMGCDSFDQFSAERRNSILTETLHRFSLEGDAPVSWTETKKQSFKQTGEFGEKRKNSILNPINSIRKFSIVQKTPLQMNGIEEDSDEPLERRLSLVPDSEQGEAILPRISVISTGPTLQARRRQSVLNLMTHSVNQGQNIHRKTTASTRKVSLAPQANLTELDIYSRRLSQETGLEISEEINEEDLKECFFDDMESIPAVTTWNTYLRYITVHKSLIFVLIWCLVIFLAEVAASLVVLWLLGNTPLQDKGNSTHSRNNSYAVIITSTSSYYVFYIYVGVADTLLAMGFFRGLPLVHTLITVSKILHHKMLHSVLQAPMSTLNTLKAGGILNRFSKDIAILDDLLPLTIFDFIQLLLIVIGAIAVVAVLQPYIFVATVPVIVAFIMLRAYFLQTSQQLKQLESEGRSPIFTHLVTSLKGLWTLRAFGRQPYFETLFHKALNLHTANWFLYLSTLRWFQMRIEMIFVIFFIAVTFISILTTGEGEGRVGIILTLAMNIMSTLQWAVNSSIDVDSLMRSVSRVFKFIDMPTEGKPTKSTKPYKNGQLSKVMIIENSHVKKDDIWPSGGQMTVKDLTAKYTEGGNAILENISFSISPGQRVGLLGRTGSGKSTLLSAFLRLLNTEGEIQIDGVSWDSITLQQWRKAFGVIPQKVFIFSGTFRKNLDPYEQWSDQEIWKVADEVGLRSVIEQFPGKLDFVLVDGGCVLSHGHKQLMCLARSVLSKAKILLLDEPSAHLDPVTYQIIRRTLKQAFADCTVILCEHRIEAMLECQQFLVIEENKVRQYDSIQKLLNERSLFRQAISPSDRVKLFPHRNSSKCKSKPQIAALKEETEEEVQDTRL
T1 sequence (P13569 with tags, fused parts or gaps DEL508-508): as above

Consider `Cc1ccccc1-c1nc(NS(=O)(=O)c2cccc(N3C[C@@H]4C[C@H]3CN4)n2)ccc1C(F)(F)F` [Example 203, 6-((1S,4S)-2,5-diazabicyclo[2.2.1]heptan-2-yl)-N-(6-(o-tolyl)-5-(trifluoromethyl)pyridin-2-yl)pyridine-2-sulfonamide hydrochloride], for which, in experiment [1], the “MTECC24 CFHBEC- Amax %” value worked out at 80.9% and the EC50 is 23.3 nM. Besides, in experiment [2], the Emax turned out to be 298% and the 50% effective concentration (EC50) turned out to be 2980 nM.
Turning to `Cc1ccccc1-c1nc(NS(=O)(=O)c2cccc(N3CC(O)(C(F)(F)F)C3)n2)ccc1C(F)(F)F` [Example 204, 6-(3-hydroxy-3-(trifluoromethyl)azetidin-1-yl)-N-(6-(o-tolyl)-5-(trifluoromethyl)pyridin-2-yl)pyridine-2-sulfonamide], in experiment [1], the “MTECC24 CFHBEC- Amax %” value amounted to 90.6% and the EC50 worked out at 5.7 nM. In experiment [2], the Emax was 943% and the EC50 came out at 1730 nM.
Consider `Cc1cccc(C)c1-c1cc(C(F)(F)F)cc(NS(=O)(=O)c2cccc(N3CC(O)C3)n2)n1` [Example 205, N-(6-(2,6-dimethylphenyl)-4-(trifluoromethyl)pyridin-2-yl)-6-(3-hydroxyazetidin-1-yl)pyridine-2-sulfonamide], for which, in experiment [1], the “MTECC24 CFHBEC- Amax %” value is given as 66.8% and the EC50 was 1.8 nM. Moreover, in experiment [2], the Emax was 592% and the concentration for a half-maximal effect (EC50) was 1290 nM.
`Cc1ccccc1-c1nc(NS(=O)(=O)c2cccc(N3CC(C)(O)C3)n2)ccc1Br` [Example 207, N-(5-bromo-6-(o-tolyl)pyridin-2-yl)-6-(3-hydroxy-3-methylazetidin-1-yl)pyridine-2-sulfonamide]: in experiment [1], the “MTECC24 CFHBEC- Amax %” value is 78.0% and the EC50 stood at 19.4 nM. Further, in experiment [2], the Emax amounted to 503% and the EC50 was 2270 nM.
For `O=S(=O)(Nc1ccc(C(F)(F)F)c(-c2ccccc2C2CC2)n1)c1cccc(N2CC(O)C2)n1` [Example 208, N-(6-(2-cyclopropylphenyl)-5-(trifluoromethyl)pyridin-2-yl)-6-(3-hydroxyazetidin-1-yl)pyridine-2-sulfonamide], in that order: 88.1%, 5.2 nM, 607% and 1380 nM.
For the compound `COc1ccc(F)cc1-c1nc(NS(=O)(=O)c2cccc(N3CC(O)C3)n2)ccc1C(F)(F)F` [Example 209, N-(6-(5-fluoro-2-methoxyphenyl)-5-(trifluoromethyl)pyridin-2-yl)-6-(3-hydroxyazetidin-1-yl)pyridine-2-sulfonamide], in experiment [1], the “MTECC24 CFHBEC- Amax %” value was determined as 95.6% and the half-maximal effective concentration (EC50) came to 139 nM. In addition, in experiment [2], the Emax is 231% and the EC50 is 2700 nM.
On to `Cc1cccc(C)c1-c1nc(NS(=O)(=O)c2cccc(N3CC(C)(O)C3)n2)ccc1Cl` [Example 210, N-(5-chloro-6-(2,6-dimethylphenyl)pyridin-2-yl)-6-(3-hydroxy-3-methylazetidin-1-yl)pyridine-2-sulfonamide], for which, in experiment [1], the “MTECC24 CFHBEC- Amax %” value was 68.7% and the concentration giving a half-maximal response (EC50) is 2.2 nM. For the same compound, in experiment [2], the Emax is 507% and the EC50 worked out at 716 nM.
For `Cc1cccc(C)c1-c1nc(NS(=O)(=O)c2cccc(N3CC(O)(C4CC4)C3)n2)ccc1Cl` [Example 211, N-(5-chloro-6-(2,6-dimethylphenyl)pyridin-2-yl)-6-(3-cyclopropyl-3-hydroxyazetidin-1-yl)pyridine-2-sulfonamide], in experiment [1], the “MTECC24 CFHBEC- Amax %” value is on record as 71.6%. Moreover, the half-maximal effective concentration (EC50) in experiment [1] came to 8.6 nM; in experiment [2] it was 1760 nM.
As for `Cc1ccc(C(F)(F)F)cc1-c1nc(NS(=O)(=O)c2cccc(N3CC(C)(O)C3)n2)ccc1Cl` [Example 212, N-(5-chloro-6-(2-methyl-5-(trifluoromethyl)phenyl)pyridin-2-yl)-6-(3-hydroxy-3-methylazetidin-1-yl)pyridine-2-sulfonamide], in experiment [1], the “MTECC24 CFHBEC- Amax %” value is 68.0% and the EC50 came out at 82 nM. Also, in experiment [2], the Emax came to 378% and the EC50 came to 1820 nM.
